The data set can be described thus: ER804057 content of the emulsion by extraction and HPLC-UV after storage. The class given is physicochemical. The following applies: emulsion PIT-ER804057 at 5%; for ER804057 content in the emulsion: theoretical concentration 40 μg/ml. As for the experimental part:
The stability of this thermoreversible emulsion was evaluated after storage for 6 months at a temperature of +4° C. by verifying the ER804057 content in the emulsion and by checking the size distribution of oil droplets in the emulsion. To assay ER804057, a selective extraction of ER804057 from the emulsion was carried out, followed by analysis by high performance liquid chromatography (HPLC) coupled to UV detector equipped with […]. The ER804057 content of the emulsion to be verified was determined using a standard range containing between 5 and 25 μg/ml of ER804057. In order to compensate for the variations in extraction yields, a constant amount of an internal standard, the chemical structure of which is very similar to that of ER804057, was introduced into each sample to be assayed (including into the samples of the standard range). This internal standard was the chemical molecule called ER803022.
The sample of PIT-ER804057 at 5% to be assayed was prepared by taking an aliquot of the emulsion PIT-ER804057 at 5%, to which 10 μg of internal standard was added, and which was diluted in water for injectable preparation.
The extraction of ER804057 from the samples of the standard range or from the samples of PIT-ER804057 at 5% was carried out in the following way: The sample was solubilized with CM2:1. The two-phase system obtained was composed of a chloroform phase containing predominantly ER804057 and an aqueous phase containing the other compounds of the emulsion. The chloroform phase was recovered and evaporated under hot conditions under a stream of nitrogen. The dry extract obtained was taken up and again solubilized in the CM2:1 mixture. […] The dry extract derived from each sample was conserved at −20° C. before being analyzed by HPLC.
The dry extract of each sample was taken up with 50 μl of CM4:1, and then diluted to ½ in methanol, then to 1/10th in a mixture of 30% acetonitrile-water for injectable preparation, 20 μl of the dilution were injected into a liquid chromatography apparatus (HPLC Merck Hitachi, serie 7000) comprising a Waters XTerra™ RP8 column pre-equilibrated in a mobile phase consisting of a mixture of 80% of phase A (water for injectable preparation/ethanol 50/50 containing 2% H3PO4) and 20% of phase B (ethanol containing 2% H3PO4), ER804057 and the internal standard were eluted using a gradient of ethanol containing 2% H3PO4. At the outlet of the HPLC, the eluate meets the UV detector and the molecules are detected at the wavelength of 215 nm. […] Once the curve was established, the amount of ER804057 present in the emulsion PIT-ER804057 at 5% was then determined by measuring the ratio of the surface areas of the ER804057/internal standard peaks.

For `CCCCCCCCCCCC(=O)CC(=O)N[C@H](COCC[C@@H](CCCCCCC)OC(=O)CCCCCCCCCCC)COP(=O)(O)OCCNC(=O)NCCOP(=O)(O)OC[C@@H](COCC[C@@H](CCCCCCC)OC(=O)CCCCCCCCCCC)NC(=O)CC(=O)CCCCCCCCCCC` [ER804057, dodecanoic acid (1R,6R,22R,27R)-1,27-diheptyl-9,19-dihydroxy-9,19-dioxido-14-oxo-6,22-bis[(1,3-dioxotetradecyl)amino]-4,8,10,18,20,24-hexaoxa-13,15-diaza-9,19-diphosphaheptacosane-1,27-diyl ester], the “ER804057 content in the emulsion” value was found to be 38 µg/mL (1 month at +4° C.), 37 µg/mL (3 months at +4° C.) and 42 µg/mL (6 months at +4° C.). In addition, the “change of ER804057 concentration in the emulsion on storage” value (6 months at +4° C.) is given as “has not substantially varied”.
